# Laboratory results published in PubChem BioAssay AID248 (DTP/NCI, 2004).
# Inconclusive results and toxic doses are left out.
# Tested on: L1210 leukemia ip in BDF1 mice, survival T/C
# Experiment: NCI In Vivo Anticancer Drug Screen. Data for tumor model L1210 Leukemia (intraperitoneal) in B6D2F1 (BDF1) mice
# Conditions: endpoint: mean survival time, higher = longer survival
# Method in brief: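 Transplanted-tumor mice were given test agent; controls received vehicle only. Survival readings from the two groups were divided (treated over control).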
# [1] = dose: 100.0 mg/kg/injection, schedule: Q01DX009 (ip), vehicle: Klucel (hydroxypropylcellulose) (HPC)
# [2] = dose: 100.0 mg/kg/injection, schedule: Q04DX003 (ip), vehicle: Klucel (hydroxypropylcellulose) (HPC)
# [3] = dose: 200.0 mg/kg/injection, schedule: Q01DX009 (ip), vehicle: Klucel (hydroxypropylcellulose) (HPC)
# [4] = dose: 200.0 mg/kg/injection, schedule: Q04DX003 (ip), vehicle: Klucel (hydroxypropylcellulose) (HPC)
# [5] = dose: 400.0 mg/kg/injection, schedule: Q01DX009 (ip), vehicle: Klucel (hydroxypropylcellulose) (HPC)
# [6] = dose: 50.0 mg/kg/injection, schedule: Q04DX003 (ip), vehicle: Klucel (hydroxypropylcellulose) (HPC)
# [7] = dose: 100.0 mg/kg/injection, schedule: Q01DX001 (ip), vehicle: carboxymethylcellulose (CMC)
# [8] = dose: 200.0 mg/kg/injection, schedule: Q01DX001 (ip), vehicle: carboxymethylcellulose (CMC)
# [9] = dose: 100.0 mg/kg/injection, schedule: Q01DX001 (ip), vehicle: saline
# [10] = dose: 200.0 mg/kg/injection, schedule: Q01DX001 (ip), vehicle: saline
# [11] = dose: 400.0 mg/kg/injection, schedule: Q01DX001 (ip), vehicle: saline
# [12] = dose: 25.0 mg/kg/injection, schedule: Q04DX003 (ip), vehicle: Klucel (hydroxypropylcellulose) (HPC)
# [13] = dose: 400.0 mg/kg/injection, schedule: Q04DX003 (ip), vehicle: Klucel (hydroxypropylcellulose) (HPC)
# [14] = dose: 400.0 mg/kg/injection, schedule: Q01DX001 (ip), vehicle: carboxymethylcellulose (CMC)
# [15] = dose: 100.0 mg/kg/injection, schedule: Q01DX001 (ip), vehicle: Klucel (hydroxypropylcellulose) (HPC)
structure (smiles),measurement,setting,value
O=S(=O)(/C=C(/Cl)c1ccccc1)c1ccccc1,T/C,"dose: 25.0 mg/kg/injection, schedule: Q01DX009 (ip), vehicle: acetone",92 % of control
same,T/C,"dose: 50.0 mg/kg/injection, schedule: Q01DX009 (ip), vehicle: acetone",90 % of control
same,T/C,"dose: 100.0 mg/kg/injection, schedule: Q01DX001 (ip), vehicle: acetone",101 % of control
same,T/C,"dose: 100.0 mg/kg/injection, schedule: Q04DX003 (ip), vehicle: acetone",103 % of control
same,T/C,"dose: 200.0 mg/kg/injection, schedule: Q01DX001 (ip), vehicle: acetone",102 % of control
same,T/C,"dose: 400.0 mg/kg/injection, schedule: Q01DX001 (ip), vehicle: acetone",104 % of control
CCCCCCCCCCCCCCCCCCNC(=O)Nc1ccc(C(C)C)cc1,T/C,[1],95 % of control
same,T/C,[2],89 % of control
same,T/C,[3],92 % of control
same,T/C,[4],89 % of control
same,T/C,[5],92 % of control
COc1ccccc1OS(=O)(=O)c1ccc(C)cc1,T/C,[6],105 % of control
same,T/C,[2],104 % of control
same,T/C,[4],105 % of control
COc1cc2c(cc1OC)/C(=C(\C#N)CCC(C)=O)NCC2,T/C,[7],92 % of control
same,T/C,[8],92 % of control
O=C1c2ccccc2C(=O)c2c(O)c([N+](=O)[O-])cc([N+](=O)[O-])c21,T/C,[9],98 % of control
same,T/C,[10],104 % of control
same,T/C,[11],100 % of control
Nc1cccc2cc3ccccc3nc12,T/C,[12],102 % of control
same,T/C,[6],92 % of control
same,T/C,[2],86 % of control
C1=C(c2ccccc2)S/C(=C/c2ccccc2)S1,T/C,"dose: 25.0 mg/kg/injection, schedule: Q01DX009 (ip), vehicle: saline with Tween-80",96 % of control
same,T/C,"dose: 50.0 mg/kg/injection, schedule: Q01DX009 (ip), vehicle: saline with Tween-80",96 % of control
same,T/C,"dose: 50.0 mg/kg/injection, schedule: Q04DX003 (ip), vehicle: saline",88 % of control
same,T/C,[9],93 % of control
same,T/C,"dose: 100.0 mg/kg/injection, schedule: Q01DX009 (ip), vehicle: saline with Tween-80",94 % of control
same,T/C,"dose: 100.0 mg/kg/injection, schedule: Q04DX003 (ip), vehicle: saline",87 % of control
same,T/C,[10],88 % of control
same,T/C,[11],88 % of control
CCOC(=O)C(C#N)(CC)C1=CCCCC1 (centres undefined),T/C,[1],106 % of control
same,T/C,[2],97 % of control
same,T/C,[3],93 % of control
same,T/C,[4],97 % of control
same,T/C,[5],97 % of control
same,T/C,[13],102 % of control
NC(=O)Cc1cc(=O)[nH]c(=O)[nH]1,T/C,"dose: 50.0 mg/kg/injection, schedule: Q01DX009 (ip), vehicle: saline",107 % of control
same,T/C,"dose: 50.0 mg/kg/injection, schedule: Q04DX003 (ip), vehicle: saline with Tween-80",96 % of control
same,T/C,"dose: 100.0 mg/kg/injection, schedule: Q01DX009 (ip), vehicle: saline",102 % of control
same,T/C,"dose: 100.0 mg/kg/injection, schedule: Q04DX003 (ip), vehicle: saline with Tween-80",97 % of control
same,T/C,"dose: 200.0 mg/kg/injection, schedule: Q01DX009 (ip), vehicle: saline",100 % of control
same,T/C,"dose: 200.0 mg/kg/injection, schedule: Q04DX003 (ip), vehicle: saline with Tween-80",94 % of control
same,T/C,"dose: 400.0 mg/kg/injection, schedule: Q01DX009 (ip), vehicle: saline",97 % of control
same,T/C,"dose: 400.0 mg/kg/injection, schedule: Q04DX003 (ip), vehicle: saline with Tween-80",91 % of control
O=C(O)c1c2ccc(=O)cc-2oc2cc(O)ccc12,T/C,[2],92 % of control
same,T/C,[4],92 % of control
same,T/C,[13],89 % of control
CN(C)[C@@H]1C(=O)C(C(N)=O)=C(O)[C@@]2(O)C(=O)C3=C(O)c4c(O)cccc4C[C@H]3C[C@@H]12,T/C,"dose: 12.5 mg/kg/injection, schedule: Q01DX001 (ip), vehicle: other",94 % of control
same,T/C,"dose: 12.5 mg/kg/injection, schedule: Q04DX003 (ip), vehicle: Klucel (hydroxypropylcellulose) (HPC)",98 % of control
same,T/C,"dose: 18.75 mg/kg/injection, schedule: Q01DX009 (ip), vehicle: other",111 % of control
same,T/C,"dose: 25.0 mg/kg/injection, schedule: Q01DX001 (ip), vehicle: other",96 % of control
same,T/C,[12],104 % of control
same,T/C,"dose: 37.5 mg/kg/injection, schedule: Q01DX009 (ip), vehicle: other",117 % of control
same,T/C,"dose: 50.0 mg/kg/injection, schedule: Q01DX001 (ip), vehicle: other",100 % of control
same,T/C,[6],107 % of control
same,T/C,"dose: 75.0 mg/kg/injection, schedule: Q04DX003 (ip), vehicle: other",107 % of control
same,T/C,[9],112 % of control
OC(c1cccc(C(O)(C(F)(F)F)C(F)(F)F)c1)(C(F)(F)F)C(F)(F)F,T/C,"dose: 5.0 mg/kg/injection, schedule: Q01DX001 (ip), vehicle: saline",97 % of control
same,T/C,"dose: 10.0 mg/kg/injection, schedule: Q01DX001 (ip), vehicle: saline",92 % of control
same,T/C,"dose: 20.0 mg/kg/injection, schedule: Q01DX001 (ip), vehicle: saline",100 % of control
same,T/C,"dose: 40.0 mg/kg/injection, schedule: Q01DX001 (ip), vehicle: saline",93 % of control
O=C(O)C1(O)c2ccccc2-c2ccc(Cl)cc21 (centres undefined),T/C,"dose: 50.0 mg/kg/injection, schedule: Q01DX001 (ip), vehicle: carboxymethylcellulose (CMC)",103 % of control
same,T/C,[7],105 % of control
same,T/C,[8],114 % of control
same,T/C,[14],103 % of control
O=C(Cl)OC12CC3CC(CC(C3)C1)C2,T/C,[15],95 % of control
same,T/C,"dose: 100.0 mg/kg/injection, schedule: Q01DX009 (ip), vehicle: other",105 % of control
same,T/C,"dose: 200.0 mg/kg/injection, schedule: Q01DX001 (ip), vehicle: Klucel (hydroxypropylcellulose) (HPC)",97 % of control
same,T/C,"dose: 200.0 mg/kg/injection, schedule: Q01DX009 (ip), vehicle: other",105 % of control
same,T/C,"dose: 400.0 mg/kg/injection, schedule: Q01DX001 (ip), vehicle: Klucel (hydroxypropylcellulose) (HPC)",100 % of control
same,T/C,"dose: 400.0 mg/kg/injection, schedule: Q01DX009 (ip), vehicle: other",105 % of control
CCOC(=O)CCC(NC(=O)c1cc(Cl)c(N(CC)Cc2cnc3nc(N)nc(N)c3n2)c(Cl)c1)C(=O)OCC (centres undefined),T/C,"dose: 25.0 mg/kg/injection, schedule: Q01DX009 (ip), vehicle: Klucel (hydroxypropylcellulose) (HPC)",179 % of control
CCCCCC1OC1C/C=C/CCCCCCCC(=O)OCC(COC(=O)CCCCCCC/C=C/CC1OC1CCCCC)OC(=O)CCCCCCC/C=C/CC1OC1CCCCC (centres undefined),T/C,[9],109 % of control
same,T/C,[10],95 % of control
same,T/C,[11],97 % of control
CC(C)NC(=O)Nc1ccc(F)cc1,T/C,"dose: 100.0 mg/kg/injection, schedule: Q01DX009 (ip), vehicle: acetone",92 % of control
same,T/C,"dose: 200.0 mg/kg/injection, schedule: Q01DX009 (ip), vehicle: acetone",101 % of control
same,T/C,"dose: 400.0 mg/kg/injection, schedule: Q01DX009 (ip), vehicle: acetone",94 % of control
OCCCCN1CCCCC1,T/C,[9],106 % of control
same,T/C,[10],101 % of control
CCCCCC(C)NCC(C)O (centres undefined),T/C,"dose: 75.0 mg/kg/injection, schedule: Q01DX001 (ip), vehicle: acid diluted with saline",100 % of control
CCC(C)N(C)N=Nc1ccc(C(N)=O)cc1 (centres undefined),T/C,"dose: 178.0 mg/kg/injection, schedule: Q01DX001 (ip), vehicle: other",104 % of control
same,T/C,"dose: 267.0 mg/kg/injection, schedule: Q01DX001 (ip), vehicle: other",112 % of control
CCC/C(=C/c1cc2ccccc2c2ccccc12)[N+](=O)[O-],T/C,[7],97 % of control
same,T/C,[8],111 % of control
same,T/C,[14],106 % of control
O=C1C=C(O)c2ccc(=O)[nH]c2C1=O,T/C,[9],95 % of control
same,T/C,[10],98 % of control
CCn1c2ccccc2c2cc3c(cc21)C(C)=NCC3,T/C,"dose: 25.0 mg/kg/injection, schedule: Q04DX002 (ip), vehicle: Klucel (hydroxypropylcellulose) (HPC)",112 % of control
same,T/C,"dose: 50.0 mg/kg/injection, schedule: Q04DX002 (ip), vehicle: Klucel (hydroxypropylcellulose) (HPC)",102 % of control
same,T/C,"dose: 100.0 mg/kg/injection, schedule: Q04DX002 (ip), vehicle: Klucel (hydroxypropylcellulose) (HPC)",102 % of control
CCOC(=O)c1cnc(SC)nc1Nc1ccc([N+](=O)[O-])cc1,T/C,"dose: 25.0 mg/kg/injection, schedule: Q01DX001 (ip), vehicle: Klucel (hydroxypropylcellulose) (HPC)",91 % of control
same,T/C,"dose: 50.0 mg/kg/injection, schedule: Q01DX001 (ip), vehicle: Klucel (hydroxypropylcellulose) (HPC)",89 % of control
same,T/C,[15],90 % of control
